Tested on: HFD-fed C57BL/6J mice
Experiment: Untargeted cortex LC-MS metabolomics
Format: in vivo
Details: cortex of HFD-fed mice
Procedure: Plasma and Cortex LC-MS Metabolomics. The left and right sides of the cortex were pooled and ground using liquid nitrogen. Cortex samples (approximately 30 mg) were extracted as previously described with slight modifications. Tissues were homogenized with 600 μL of cold 80% acetonitrile with 0.1% formic acid containing 0.2 μg/mL of dopamine-d4 (Sigma-Aldrich, St Louis, MO, USA) and 0.2 μg/mL of chlorpropamide (Sigma-Aldrich, St Louis, MO, USA) using a counter-top bullet blender for 2 min and centrifuged at 20 000 rpm for 10 minutes. Supernatants were transferred to high performance liquid chromatography (HPLC) vials for analysis.
LC-high-resolution mass spectrometry/MS. Data dependent acquisition in both negative and positive ion mode was conducted using a Shimadzu Nexera UPLC system coupled to an AB SCIEX TripleTOF 5600 mass spectrometer (AB SCIEX, Toronto, Canada). Chromatographic separation was conducted using an Inertsil Phenyl-3 column (4.6×150 mm, 100 Å, 5 μm; GL Sciences, Tokyo, Japan). Spray voltage was −4200 V for negative ion mode and 4500 V for positive ion mode acquisition. The injection volume was 3 μL. Metabolite identifications were performed using Progenesis QI software (V2.4.6911) with METLIN plugin V1.0.6499 (NonLinear Dynamics, United Kingdom). Progenesis QI was used for peak picking, retention time correction, data normalization, peak alignment, and metabolite annotations. Metabolites were detected in both ion modes; the one with the lowest coefficient of variation of the QC was kept.

**Q.** Which results are given for COc1cc(O)c(CC=C(C)C)c(O)c1C(=O)/C=C/c1ccc(O)cc1 [XN, xanthohumol]?
**A.** Ion intensities, Mean: 1,2-DIPALMITOYL-SN-GLYCEROL: 934.62; Ion intensities, Mean: 1-Arachidonoyl-glycerophosphoinositol: 645.87; Ion intensities, Mean: 1-Palmitoyl-2-linoleoyl PE: 1782.31; Ion intensities, Mean: 2-Pyrrolidinone: 1091.46; Ion intensities, Mean: 2′-DEOXYURIDINE 5′-MONOPHOSPHATE: 615.86; Ion intensities, Mean: 3-Methyl-L-histidine: 495.48; Ion intensities, Mean: 3-PHOSPHO-GLYCERIC ACID: 2094.74; Ion intensities, Mean: 5-Acetylamino-6-amino-3-methyluracil: 108.09; Ion intensities, Mean: 5-Methylcytidine: 6615.71; Ion intensities, Mean: 12-HYDROXYDODECANOIC-ACID: 2479.58; Ion intensities, Mean: 20-Hydroxy-PGE2: 9703.49; Ion intensities, Mean: 27-Hydroxycholesterol: 17882.79; Ion intensities, Mean: ADENOSINE: 42044.83; Ion intensities, Mean: ADENOSINE 5′-DIPHOSPHORIBOSE: 2010.85; Ion intensities, Mean: ADENOSINE 5′-MONOPHOSPHATE: 75745.39; Ion intensities, Mean: ADENOSINE-5′-DIPHOSPHOGLUCOSE: 924.21; Ion intensities, Mean: ADP: 1070.27; Ion intensities, Mean: AMINOADIPATE: 211.18; Ion intensities, Mean: ASCORBATE: 2138.35; Ion intensities, Mean: ASPARTATE: 1174.88; Ion intensities, Mean: Acetylcarnitine: 11173.39; Ion intensities, Mean: Acetylcholine: 1788.61; Ion intensities, Mean: Adenine: 1575.62; Ion intensities, Mean: Adenylosuccinate: 482.18; Ion intensities, Mean: Adenylsuccinic acid: 1871.57; Ion intensities, Mean: Arachidonic acid: 25496.26; Ion intensities, Mean: Arachidonic acid ethyl ester: 417.92; Ion intensities, Mean: Arginine: 1863.90; Ion intensities, Mean: Aspartic acid: 8381.28; Ion intensities, Mean: BILIVERDIN: 251.38; Ion intensities, Mean: CARNITINE: 11992.59; Ion intensities, Mean: CDP-Ethanolamine: 303.02; Ion intensities, Mean: CHENODEOXYCHOLATE: 5290.32; Ion intensities, Mean: CITRATE: 997.79; Ion intensities, Mean: CMP: 586.09; Ion intensities, Mean: Carnosine: 929.30; Ion intensities, Mean: Choline: 7326.72; Ion intensities, Mean: Creatine: 81660.56; Ion intensities, Mean: Cysteineglutathione disulfide: 1321.30; Ion intensities, Mean: Cytidine: 766.86; Ion intensities, Mean: Cytidine 2′,3′-cyclic phosphate: 419.79; Ion intensities, Mean: Cytidine diphosphate choline (CDPcholine): 2132.21; Ion intensities, Mean: D-GLUCOSE 6-PHOSPHATE: 54.37; Ion intensities, Mean: D-Glucaro-1,4-lactone: 1852.68; Ion intensities, Mean: D-RIBOSE 5-PHOSPHATE: 119.65; Ion intensities, Mean: DESMOSTEROL: 16777.33; Ion intensities, Mean: DIHYDROOROTATE: 129.45; Ion intensities, Mean: Deoxycytidine: 405.53; Ion intensities, Mean: Deoxyguanosine: 2552.08; Ion intensities, Mean: Docosahexaenoic acid: 3528.63; Ion intensities, Mean: Docosenamide: 22701.50; Ion intensities, Mean: Dodecanedioic acid: 332.32; Ion intensities, Mean: ERUCIC ACID: 114.42; Ion intensities, Mean: ETHANOLAMINE PHOSPHATE: 361.87; Ion intensities, Mean: Ergothioneine: 433.26; Ion intensities, Mean: Ethyl nicotinate: 74.78; Ion intensities, Mean: GLUTAMIC ACID: 7047.98; Ion intensities, Mean: GLUTAMINE: 18241.11; Ion intensities, Mean: GUANOSINE 5′-MONOPHOSPHATE: 2052.93; Ion intensities, Mean: Glutamate: 45779.91; Ion intensities, Mean: Glutathione: 194624.55; Ion intensities, Mean: Glycerophosphocholine: 104911.40; Ion intensities, Mean: Guanosine monophosphate: 482.20; Ion intensities, Mean: HEPTADECANOATE: 24.77; Ion intensities, Mean: HISTIDINE: 901.19; Ion intensities, Mean: Homocarnosine: 433.96; Ion intensities, Mean: Homoserine: 952.74; Ion intensities, Mean: Hydroxybutyric acid: 2561.64; Ion intensities, Mean: Hydroxyphenethylamine: 3489.46; Ion intensities, Mean: Hypoxanthine: 100.45; Ion intensities, Mean: Hypusine: 94.62; Ion intensities, Mean: ISOCITRIC ACID: 2099.31; Ion intensities, Mean: ISOLEUCINE: 1271.60; Ion intensities, Mean: Indoleacetaldehyde: 565.25; Ion intensities, Mean: Inosine: 1426.47; Ion intensities, Mean: Inosine 5′-monophosphate (IMP): 3551.74; Ion intensities, Mean: Isostearic acid: 2314.30; Ion intensities, Mean: L-2-Amino-5-hydroxypentanoicacid: 1771.05; Ion intensities, Mean: L-OLEOYL-RAC-GLYCEROL: 3415.51; Ion intensities, Mean: LACTATE: 3374.25; Ion intensities, Mean: LAUROYLCARNITINE: 384.69; Ion intensities, Mean: LEUKOTRIENE B4: 49.50; Ion intensities, Mean: LYSINE: 51.50; Ion intensities, Mean: Lathosterol: 23593.87; Ion intensities, Mean: Lipoamide: 70.91; Ion intensities, Mean: MALATE: 1271.76; Ion intensities, Mean: Methionine: 1365.89; Ion intensities, Mean: Methylthioadenosine: 2473.94; Ion intensities, Mean: Myristoylcarnitine: 1742.03; Ion intensities, Mean: N,N-dimethyl-Safingol: 638.46; Ion intensities, Mean: N-(1-Deoxy-1-fructosyl) serine: 3036.19; Ion intensities, Mean: N-ACETYL-L-ASPARTICACID: 24960.43; Ion intensities, Mean: N-ACETYLNEURAMINATE: 817.62; Ion intensities, Mean: N-Acetyl-Glutamic acid: 154.68; Ion intensities, Mean: N-Acetyl-L-alanine: 1997.71; Ion intensities, Mean: N-Acetylaspartylglutamic acid: 2179.47; Ion intensities, Mean: N-Acetylglutamine: 273.18; Ion intensities, Mean: N-Acetylisoputreanine: 99.54; Ion intensities, Mean: N-Acetyllactosamine: 308.43; Ion intensities, Mean: N-Linoleoyl GABA: 57.01; Ion intensities, Mean: N-Methyl-Glutamate: 2277.43; Ion intensities, Mean: N-a-Acetyl-Arginine: 175.03; Ion intensities, Mean: NAD: 532.29; Ion intensities, Mean: NE,NE,NE-TRIMETHYLLYSINE: 2830.12; Ion intensities, Mean: Niacinamide: 4607.66; Ion intensities, Mean: Nicotinamide adenine dinucleotide (NAD): 2094413; Ion intensities, Mean: O-Phosphoethanolamine: 497.23; Ion intensities, Mean: Octadecenoic acid: 202.97; Ion intensities, Mean: Oleamide: 4025.45; Ion intensities, Mean: Oxidized glutathione: 2115.40; Ion intensities, Mean: PALMITATE: 1472.32; Ion intensities, Mean: PALMITOLEIC ACID: 62.02; Ion intensities, Mean: PANTOTHENIC ACID: 442.74; Ion intensities, Mean: PETROSELINIC ACID: 220.71; Ion intensities, Mean: PHENYLALANINE: 2371.34; Ion intensities, Mean: PHENYLETHANOLAMINE: 1245.94; Ion intensities, Mean: Phenylpropionylglycine: 294.60; Ion intensities, Mean: Phosphocholine: 18574.78; Ion intensities, Mean: Phosphodimethyl-ethanolamine: 161.80; Ion intensities, Mean: Pipecolic acid: 422.43; Ion intensities, Mean: Propionylcarnitine: 571.28; Ion intensities, Mean: Pyridoxamine-5′-Phosphate: 377.92; Ion intensities, Mean: RAC-GLYCEROL-L-MYRISTATE: 293.55; Ion intensities, Mean: S-Adenosylhomocysteine: 397.04; Ion intensities, Mean: S-Adenosylmethionine: 11562.08; Ion intensities, Mean: SERINE: 355.32; Ion intensities, Mean: SUCCINATE: 362.22; Ion intensities, Mean: Spermic acid 1: 178.91; Ion intensities, Mean: Spermidine: 5406.36; Ion intensities, Mean: Sphinganine: 34.01; Ion intensities, Mean: Sphinganine 1-phosphate: 2568.50; Ion intensities, Mean: Sphingosine: 1322.46; Ion intensities, Mean: Stearoylglycerophosphoserine: 2006.21; Ion intensities, Mean: Succinyladenosine: 192.45; Ion intensities, Mean: TAURINE: 6070.22; Ion intensities, Mean: THEOPHYLLINE: 18.71; Ion intensities, Mean: TRYPTOPHAN: 1131.43; Ion intensities, Mean: Tetradecanedioic acid: 125.75; Ion intensities, Mean: Tetrahydrodeoxycortisol: 3344.70; Ion intensities, Mean: Threoninyl-Alanine: 227.23; Ion intensities, Mean: Tyrosine: 4311.01; Ion intensities, Mean: URIDINE: 1155.56; Ion intensities, Mean: URIDINE 5′-DIPHOSPHOGALACTOSE: 462.04; Ion intensities, Mean: URIDINE-5-MONOPHOSPHATE: 2103.27; Ion intensities, Mean: Undecanedicarboxylic acid: 236.12; Ion intensities, Mean: Uracil: 201.36; Ion intensities, Mean: Uridine 5′-diphosphate: 248.01; Ion intensities, Mean: Xanthine: 137.03; Ion intensities, Mean: cyclic GMP-AMP: 1495.60; Ion intensities, Mean: diethyltoluamide: 8.44; Ion intensities, Mean: docosa-hexaenoic acid: 3095.80; Ion intensities, Mean: hydroxyhexadecanoyl carnitine: 1430.92; Ion intensities, Mean: hydroxyvitamin D3: 16859.40; Ion intensities, Mean: sn-glycero-3-Phosphoethanolamine: 737.74

Reference: patent US12534439B2, “Xanthohumol derivatives and methods for making and using” (Oregon State University, priority 2021, dated 2026)
